Laboratory results as given in PMC13538172, “Zonisamide nanodiamonds for brain targeting: A comprehensive study utilising in silico, in vitro, in vivo, and molecular investigation for successful nose-to-brain delivery for epilepsy management” (Drug Delivery and Translational Research, 2025).

Key:
Format in all cases: in vivo
[1] = system: matrix metallopeptidase-9 (MMP-9); test: Serum MMP-9 by ELISA in TLE rats; conditions: compared to the TLE control rats; intranasal, 7 days
Method: (§1) Temporal lobe epilepsy (TLE) was induced in rats using the pilocarpine model according to the method of Arshad et al.. Prior to the experiment, rats were housed in plastic cages at October University for Modern Science and Arts under controlled environmental conditions (temperatures of 25°±3°C and 50% humidity) with free access to water and softened standard pellet chow. The rats were injected with pilocarpine (300 mg/kg; i.p.) to induce status epilepticus (SE). Atropine (1 mg/kg; i.p.) was injected 30 minutes before pilocarpine injection to antagonize the peripheral muscarinic activity. SE was defined using the modified Racine scale by observing seizure severity categorized as stages 4 and 5. […] The SE seizures were left to last for 3 hours to induce hippocampus damage, after which diazepam (10 mg/kg; i.p.) was injected to attenuate the seizures. Lubricant ophthalmic gel was applied with a cotton swab to each eye to prevent the corneas from drying out during the seizures. The rats were hydrated with sterile Ringer's lactate injections (1 mL, i.p.) for 3 days post-SE induction. […]
(§2) The serum levels of neuron-specific enolase (NSE), matrix metallopeptidase-9 (MMP-9), neurofilament light polypeptide (NEFL), and brain-derived neurotrophic factor (BDNF) were measured by ELISA technique using the following standard kits CAT no. […]

[2] = system: brain-derived neurotrophic factor (BDNF); test: Serum BDNF by ELISA in TLE rats; conditions: TLE control 22.1 ± 1.7, normal group 76.8 ± 6.1
Method: as §1, §2

[3] = system: brain hippocampus; test: Histopathological examination of the brain hippocampus in TLE rats; conditions: H&E, Fig. 12
Method: as §1, with “Arshad” left out, “induction. Animal welfare assessments were conducted multiple times per day for several days after the induction of SE.” for “induction.”

[4] = system: neuron-specific enolase (NSE); test: Serum NSE by ELISA in TLE rats; conditions: compared to the TLE control rats; intranasal, 7 days
Method: as §1, §2

With `NS(=O)(=O)Cc1noc2ccccc12` [ZNS, Zonisamide] the “decrease in serum level of MMP-9” value [1] was 40.1%, the “serum level of BDNF” value [2] was 47.45 ± 1.9 pg/mL and the “hippocampal histopathology, result in words” value [3] was “noticeable neuroprotective efficacy”. The “decrease in serum level of NSE” value [4] was 30.6%.
